Reference: patent US10577337B2, “Compositions and methods of treatment with prodrugs of tizoxanide, an analogue or salt thereof” (Romark Laboratories, L.C., priority 2014, dated 2020)

Legend:
Aqueous solubility = type: physicochemical
[1] = humans, cited from earlier work

SMILES	aqueous solubility, descriptive term (Aqueous solubility)	solubility (Aqueous solubility; aqueous) [µg/mL]	effect of food on absorption ([1]; administered with food)	half-life of tizoxanide in plasma ([1]; after oral nitazoxanide or nitazoxanide plus tizoxanide)
CC(=O)Oc1ccccc1C(=O)Nc1ncc([N+](=O)[O-])s1 [nitazoxanide, 2-(acetolyloxy)-N-(5-nitro-2-thiazolyl)benzamide]	practically insoluble	< 100	approximately doubled with food	–
O=C(Nc1ncc([N+](=O)[O-])s1)c1ccccc1O [tizoxanide]	–	–	–	approximately 1.5 hours
